Assay results as given in patent US12478628B2, “Germ cell nuclear factor ligands and methods of use thereof” (Saint Louis University, priority 2020, dated 2025).

Target: T1, GCNF LBD (Homo sapiens, UniProt Q15406)
T1 construct: Human GCNF (NR6A1) LBD (residues 248-480); made in house; host or cells: E. coli BL(21) DE3
T1 sequence (Q15406 248-480): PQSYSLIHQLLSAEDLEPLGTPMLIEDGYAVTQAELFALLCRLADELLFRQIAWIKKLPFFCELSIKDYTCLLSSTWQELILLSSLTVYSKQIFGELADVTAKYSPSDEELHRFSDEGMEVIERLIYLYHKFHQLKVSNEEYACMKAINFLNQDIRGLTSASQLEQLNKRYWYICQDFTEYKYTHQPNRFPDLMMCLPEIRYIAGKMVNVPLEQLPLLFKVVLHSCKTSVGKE
Assay: Differential scanning fluorimetry (DSF) of GCNF LBD
Assay type: binding
Details: additional ligand screening
Protocol: DSF Assay. GCNF LBD (5 μM) were mixed with 1× Sypro orange (Invitrogen) in DSF buffer (50 mM HEPES, 50 mM KCl, 5 mM TCEP, 0.5 mM EDTA, pH 7.5). Test compounds was added at 1:1 molar equivalence as protein or replaced with DMSO control. Ten microliters (10 μL)×5 replicates for each sample were plated on 384-well PCR microplate. No protein control and no ligand references were also run simultaneously in 5 replicates on the same plate. A total of 450 compounds (Life Chemicals) previously selected from a nuclear-receptor-biased library targeting REV-ERB were analyzed. Thermal stability was assessed on a Quantstudio 6 instrument (Biosystems) by ramping the temperature from 25° C. to 95° C. at 0.05° C./s and protein melt shifts were subsequently quantified by Boltzmann-derived melting temperature (Tm) using the Protein Thermal Shift (ThermoFisher) software. Positive hits were identified when a thermal shift (ΔTm) of at least 2° C. was observed.
For the DSF ligand titration assay, ligands 30, 34 and 80 were titrated against 5 μM GCNF LBD with a ligand concentration series of 30, 20, 13, 9, 6, 4, 2.6, 1.7 and 0 μM from a 20 mM DMSO stock solution. DSF assay and analysis was then performed as described above. All DSF data were reported as mean±SEM.

SMILES	change in Tm of GCNF
CCCCCn1c(SCC(=O)CC(=O)OCC)nc2cc(C(=O)NCc3ccco3)ccc2c1=O [R12]	0.8 °C
COC(=O)COc1cccc2c(=O)n(CC(=O)NCCc3ccc(OC)c(OC)c3)ccc12 [R9]	0.8 °C
CCOC(=O)C(C)Oc1cccc2c(=O)n(CC(=O)Nc3c(C)cc(C)cc3C)ccc12 (stereo not drawn) [R5]	1.6 °C

Next, values leading:

change in Tm of GCNF	SMILES
1.0 °C	CC(=O)Nc1ccc(NCC(O)Cn2c3ccccc3n3c(=O)cc(C)c(C#N)c23)cc1 (stereo not drawn) [U7]
0.9 °C	O=C1CCCC2=C1C(c1ccc(O)cc1)C1=C(CCCC1=O)O2 [U1]
2.3 °C	COc1ccc(NC(=O)N2CCC3(CC2)N=C(SCc2ccccc2)C(c2ccccc2)=N3)cc1OC [U2]
